From PubChem BioAssay (NCI)
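Method: 48-hour compound exposure of cells in 96-well plates, five concentrations, linear interpolation of endpoints. GI50 = concentration required for 50% inhibition of growth. TGI: concentration producing complete growth inhibition.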

Assays:
Assay in all cases: NCI tumour cell line growth inhibition, 48 h
BT-549 breast = tested on: BT-549 breast
LOX IMVI melanoma = tested on: LOX IMVI melanoma
SK-MEL-2 melanoma = tested on: SK-MEL-2 melanoma
HOP-62 NSCLC = tested on: HOP-62 NSCLC
SNB-19 CNS = tested on: SNB-19 CNS
SNB-75 CNS = tested on: SNB-75 CNS
ACHN renal = tested on: ACHN renal
SK-MEL-28 melanoma = tested on: SK-MEL-28 melanoma
CAKI-1 renal = tested on: CAKI-1 renal
MDA-MB-231 breast = tested on: MDA-MB-231 breast
A549 NSCLC = tested on: A549 NSCLC
KM12 colon = tested on: KM12 colon
HCT-15 colon = tested on: HCT-15 colon
CCRF-CEM leukemia = tested on: CCRF-CEM leukemia
UACC-62 melanoma = tested on: UACC-62 melanoma
HL-60(TB) leukemia = tested on: HL-60(TB) leukemia
NCI-H226 lung = tested on: NCI-H226 lung
UO-31 renal = tested on: UO-31 renal
UACC-257 melanoma = tested on: UACC-257 melanoma
MDA-MB-435 = tested on: MDA-MB-435
HT29 colon = tested on: HT29 colon
COLO 205 colon = tested on: COLO 205 colon
HOP-92 NSCLC = tested on: HOP-92 NSCLC
OVCAR-3 ovarian = tested on: OVCAR-3 ovarian
SF-295 CNS = tested on: SF-295 CNS
PC-3 prostate = tested on: PC-3 prostate
HCC-2998 colon = tested on: HCC-2998 colon
SF-539 CNS = tested on: SF-539 CNS
TK-10 renal = tested on: TK-10 renal
SK-MEL-5 melanoma = tested on: SK-MEL-5 melanoma
M14 melanoma = tested on: M14 melanoma
SF-268 CNS = tested on: SF-268 CNS
A498 renal = tested on: A498 renal
MOLT-4 leukemia = tested on: MOLT-4 leukemia
U251 CNS = tested on: U251 CNS
EKVX NSCLC = tested on: EKVX NSCLC
MALME-3M melanoma = tested on: MALME-3M melanoma
T-47D breast = tested on: T-47D breast
NCI-H522 lung = tested on: NCI-H522 lung
786-0 renal = tested on: 786-0 renal
OVCAR-5 ovarian = tested on: OVCAR-5 ovarian
SR leukemia = tested on: SR leukemia
SW-620 colon = tested on: SW-620 colon
SK-OV-3 ovarian = tested on: SK-OV-3 ovarian
NCI-H460 lung = tested on: NCI-H460 lung
IGROV1 ovarian = tested on: IGROV1 ovarian
OVCAR-4 ovarian = tested on: OVCAR-4 ovarian
NCI/ADR-RES ovarian = tested on: NCI/ADR-RES ovarian
MCF7 breast = tested on: MCF7 breast
SN12C renal = tested on: SN12C renal
OVCAR-8 ovarian = tested on: OVCAR-8 ovarian
DU-145 prostate = tested on: DU-145 prostate
RXF 393 renal = tested on: RXF 393 renal
NCI-H23 lung = tested on: NCI-H23 lung
HCT-116 colon = tested on: HCT-116 colon

Compound: O=C(CCN1CCCC1)Nc1ccc2c(NCc3ccc(F)cc3)c3ccccc3nc2c1
- GI50 (BT-549 breast): 1200 nM
- TGI (BT-549 breast): 2670 nM
- GI50 (LOX IMVI melanoma): 380 nM
- TGI (LOX IMVI melanoma): 1480 nM
- GI50 (SK-MEL-2 melanoma): 1210 nM
- TGI (SK-MEL-2 melanoma): 2700 nM
- GI50 (HOP-62 NSCLC): 611 nM
- TGI (HOP-62 NSCLC): 2620 nM
- GI50 (SNB-19 CNS): 470 nM
- TGI (SNB-19 CNS): 1870 nM
- GI50 (SNB-75 CNS): 506 nM
- TGI (SNB-75 CNS): 1870 nM
- GI50 (ACHN renal): 483 nM
- TGI (ACHN renal): 1870 nM
- GI50 (SK-MEL-28 melanoma): 1470 nM
- TGI (SK-MEL-28 melanoma): 2880 nM
- GI50 (CAKI-1 renal): 1420 nM
- TGI (CAKI-1 renal): 5420 nM
- GI50 (MDA-MB-231 breast): 454 nM
- TGI (MDA-MB-231 breast): 1910 nM
- GI50 (A549 NSCLC): 384 nM
- TGI (A549 NSCLC): 1790 nM
- GI50 (KM12 colon): 431 nM
- TGI (KM12 colon): 1620 nM
- GI50 (HCT-15 colon): 1530 nM
- TGI (HCT-15 colon): 4070 nM
- GI50 (CCRF-CEM leukemia): 463 nM
- TGI (CCRF-CEM leukemia): 13400 nM
- GI50 (UACC-62 melanoma): 827 nM
- TGI (UACC-62 melanoma): 2160 nM
- GI50 (HL-60(TB) leukemia): 550 nM
- TGI (HL-60(TB) leukemia): 2340 nM
- GI50 (NCI-H226 lung): 570 nM
- TGI (NCI-H226 lung): 2630 nM
- GI50 (UO-31 renal): 1330 nM
- TGI (UO-31 renal): 3090 nM
- GI50 (UACC-257 melanoma): 1740 nM
- TGI (UACC-257 melanoma): 3540 nM
- GI50 (MDA-MB-435): 692 nM
- TGI (MDA-MB-435): 1970 nM
- GI50 (HT29 colon): 377 nM
- TGI (HT29 colon): 1850 nM
- GI50 (COLO 205 colon): 396 nM
- TGI (COLO 205 colon): 1650 nM
- GI50 (HOP-92 NSCLC): 366 nM
- TGI (HOP-92 NSCLC): 2070 nM
- GI50 (OVCAR-3 ovarian): 488 nM
- TGI (OVCAR-3 ovarian): 1920 nM
- GI50 (SF-295 CNS): 590 nM
- TGI (SF-295 CNS): 2030 nM
- GI50 (PC-3 prostate): 479 nM
- TGI (PC-3 prostate): 1900 nM
- GI50 (HCC-2998 colon): 485 nM
- TGI (HCC-2998 colon): 2030 nM
- GI50 (SF-539 CNS): 443 nM
- TGI (SF-539 CNS): 1630 nM
- GI50 (TK-10 renal): 1040 nM
- TGI (TK-10 renal): 2930 nM
- GI50 (SK-MEL-5 melanoma): 1440 nM
- TGI (SK-MEL-5 melanoma): 2760 nM
- GI50 (M14 melanoma): 1070 nM
- TGI (M14 melanoma): 2400 nM
- GI50 (SF-268 CNS): 465 nM
- TGI (SF-268 CNS): 1910 nM
- GI50 (A498 renal): 733 nM
- TGI (A498 renal): 2260 nM
- GI50 (MOLT-4 leukemia): 398 nM
- TGI (MOLT-4 leukemia): 2340 nM
- GI50 (U251 CNS): 462 nM
- TGI (U251 CNS): 1880 nM
- GI50 (EKVX NSCLC): 580 nM
- TGI (EKVX NSCLC): 2300 nM
- GI50 (MALME-3M melanoma): 1110 nM
- TGI (MALME-3M melanoma): 2400 nM
- GI50 (T-47D breast): 768 nM
- TGI (T-47D breast): 3220 nM
- GI50 (NCI-H522 lung): 394 nM
- TGI (NCI-H522 lung): 1750 nM
- GI50 (786-0 renal): 550 nM
- TGI (786-0 renal): 1940 nM
- GI50 (OVCAR-5 ovarian): 480 nM
- TGI (OVCAR-5 ovarian): 2010 nM
- GI50 (SR leukemia): 349 nM
- TGI (SR leukemia): 1720 nM
- GI50 (SW-620 colon): 353 nM
- TGI (SW-620 colon): 1530 nM
- GI50 (SK-OV-3 ovarian): 849 nM
- TGI (SK-OV-3 ovarian): 3500 nM
- GI50 (NCI-H460 lung): 336 nM
- TGI (NCI-H460 lung): 1150 nM
- GI50 (IGROV1 ovarian): 363 nM
- TGI (IGROV1 ovarian): 1500 nM
- GI50 (OVCAR-4 ovarian): 450 nM
- TGI (OVCAR-4 ovarian): 1840 nM
- GI50 (NCI/ADR-RES ovarian): 9110 nM
- TGI (NCI/ADR-RES ovarian): 43900 nM
- GI50 (MCF7 breast): 314 nM
- TGI (MCF7 breast): 1310 nM
- GI50 (SN12C renal): 390 nM
- TGI (SN12C renal): 1660 nM
- GI50 (OVCAR-8 ovarian): 517 nM
- TGI (OVCAR-8 ovarian): 2860 nM
- GI50 (DU-145 prostate): 368 nM
- TGI (DU-145 prostate): 1540 nM
- GI50 (RXF 393 renal): 401 nM
- TGI (RXF 393 renal): 1610 nM
- GI50 (NCI-H23 lung): 413 nM
- TGI (NCI-H23 lung): 1670 nM
- GI50 (HCT-116 colon): 313 nM
- TGI (HCT-116 colon): 1350 nM
